Reference: US7084109B2, “FVIIa antagonists” (Genentech, Inc., priority 1999, dated 2006)
No end group written: not given here.

Columns and labels:
[1] = test system: TF dependent extrinsic clotting pathway in human plasma; test: Prothrombin time (PT) clotting assay
Method: Clotting Assays—Prothrombin time (PT) and activated partial thromboplastin time (APTT) clotting time assays were performed in citrated pooled normal plasmas (human or various animal species). Clotting times were determined using an ACL 300 Automated Coagulation Analyzer (Coulter Corp., Miami, Fla.) and commercially available reagents as follows.
For the PT assay, aqueous solutions of inhibitor at various concentrations were added to citrated pooled normal plasma in a ratio of 1 part inhibitor to 9 parts plasma. Following a 30 min incubation, these mixtures were added to sample cups of an ACL 300 Analyzer. Innovin® (Dade International Inc., Miami, Fla.), a mixture of human relipidated tissue factor and Ca^2+ ions was added to the reagent cup. Precise volumes of sample and Innovin® (50 μl sample, 100 μl Innovin) were automatically transferred to cells of an acrylic rotor pre-equilibrated to 37° C. Following a 2 min incubation period, coagulation was initiated by mixing the two components by centrifugation. Coagulation was monitored optically and clotting time was reported in seconds. In this system, the clotting time of control plasmas (plasma plus inhibitor diluent) was typically 8 to 10 seconds. The fold prolongation is the clotting time of the inhibitor relative to the clotting time of the control.
Clotting Assays—The PT clotting assay was carried out as described in Example 1.

TF-FVIIa = TF-FVIIa (Homo sapiens, UniProt P08709); test: FX Activation Assay (activation of FX by TF-FVIIa); format: biochemical
Method: FX Activation Assay—Activation of FX by TF-FVIIa was monitored at room temperature as a function of peptide concentration. Each assay sample contained 100 μl of 460 pM relipidated TF1-243 (TFPC) (Kelley, R. F. et al. (1997) Blood 89:3219-3227) and 30 pM FVIIa in HBS/Ca buffer (20 mM HEPES, pH 7.4, 5 mM CaCl2, 150 mM NaCl, 0.1% PEG 8000); after 20 min, 25 μl of peptide diluted in HBS/Ca Buffer was added. Following a 30 min incubation the reaction was initiated by the addition of 25 μl of 1 μM FX in HBS/Ca (Note: this yields a final concentration of 306 pM TFPC, 20 pM FVIIa, and 166 nM FX). For kinetic analysis, the final concentration of FX was varied from between 20 and 500 nM. Aliquots of 25 μl were removed at 1, 3, 5, 7 and 9 min and quenched in 25 μl of 50 mM EDTA. The FXa generated in each aliquot could be measured by the addition of 100 μl of 250 nM Spectrozyme fXa (American Diagnostica), 50 mM Tris, pH 8, 50 mM NaCl, 0.0025% Triton X-100. The rate of FXa generated at each peptide concentration was proportional to the initial slope of the absorbance at 405 nm vs. time. Sigmoidal curves were fit to a four parameter equation by nonlinear regression analysis (Marquardt, J. Soc. Indust. Appl. Math. 11:431-441 (1963); the concentration of each peptide required to give a half-maximal signal in the assay was calculated from the curves and is referred to as the IC50 value. […]

Sequence of TF-FVIIa (P08709 61-212 limits assumed): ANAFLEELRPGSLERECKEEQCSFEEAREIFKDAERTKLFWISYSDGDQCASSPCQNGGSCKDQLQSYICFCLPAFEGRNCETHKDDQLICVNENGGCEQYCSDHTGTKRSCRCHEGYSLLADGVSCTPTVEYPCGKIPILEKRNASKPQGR
Sequence of TF-FVIIa (P08709 213-466 limits assumed): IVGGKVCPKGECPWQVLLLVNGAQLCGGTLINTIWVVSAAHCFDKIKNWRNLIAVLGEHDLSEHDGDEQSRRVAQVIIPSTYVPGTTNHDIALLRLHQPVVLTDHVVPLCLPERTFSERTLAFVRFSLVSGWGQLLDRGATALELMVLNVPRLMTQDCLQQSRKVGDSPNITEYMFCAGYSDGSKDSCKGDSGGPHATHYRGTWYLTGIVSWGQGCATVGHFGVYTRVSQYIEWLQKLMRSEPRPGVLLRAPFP
Sequence of TF-FVIIa (P13726 33-275 partner limits assumed): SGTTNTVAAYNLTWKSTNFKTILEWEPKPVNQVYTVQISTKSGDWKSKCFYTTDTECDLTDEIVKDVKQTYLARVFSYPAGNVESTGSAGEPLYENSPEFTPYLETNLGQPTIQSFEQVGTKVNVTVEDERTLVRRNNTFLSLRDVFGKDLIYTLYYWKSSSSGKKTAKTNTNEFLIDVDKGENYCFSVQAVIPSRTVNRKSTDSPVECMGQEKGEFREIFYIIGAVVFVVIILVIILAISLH

Which results are given for “TF151-Fc: peptide sequence TF151 with a GGGSSG linker fused to the Fc portion of human IgG1, expressed in insect cells; forms a dimer (SQAQRRAVGALCDNPRIDRWYCQFVEGGGGSSG-{human IgG1 Fc}; cysteine pairing not given here; also: dimer)”?
prolongation of the prothrombin time (potency) [1]: comparable to peptide TF151; ability to inhibit FX activation by TF-FVIIa (TF-FVIIa): comparable to the peptide TF151
